The values that follow are results of earlier work, collected in patent US20100152180A1, “4-oxo-4,5-dihydropyrrolo[1,2-A)quinoxaline derivatives as inhibitors of poly(ADP-ribose) polymerase (PARP)” (priority 2006, published 2010).

In this data set the test system is ischemia and reperfusion of the heart or skeletal muscle. The conditions noted are these: rabbits.

Regarding `NC(=O)c1cccc(N)c1` [3-amino-benzamide], the “reduction in infarct size in the heart” value (single injection 10 mg/kg, one minute before occlusion or one minute before reperfusion) is 32-42%.

For `Oc1cccc2c(O)nccc12` [1,5-dihydroxyisoquinoline], under “single injection 1 mg/kg”, the “reduction in infarct size” value is listed as 38-48%.
